# Values of other authors in patent publication US20110166946A1, “METHOD OF PROMOTING AND SELLING COFFEE” (NESTEC S.A., priority 2008, published 2011).
# Tests used:
# [1] = in vivo
# [2] = after 50 μM chlorogenic acid intestinal perfusion, rat
# [3] = preclinical models
SMILES,time of appearance in blood after ingestion [1] [min],time to reach baseline level after ingestion [1] [h],isoferulic acid detected in plasma [2] [µM],time of appearance of conjugated forms of CA in plasma after ingestion [3] [min]
"Oc1cc(O)c2c(c1)O[C@H](c1cc(O)c(O)c(O)c1)[C@H](O)C2 [EGC, (−)-Epigallocatechin]",≤ 30,≤ 12,,
"O=C(/C=C/c1ccc(O)c(O)c1)O[C@@H]1C[C@](O)(C(=O)O)C[C@@H](O)[C@H]1O [chlorogenic acid, 5-caffeoylquinic acid]",,,0.12,30
